The values below come from article PMC4057422, “Apoptotic Death of Prostate Cancer Cells by a Gonadotropin-Releasing Hormone-II Antagonist” (PLoS ONE, 2014).

The target in data set [1] is bull frog GnRHR-II (bfGnRHR-II) (Aquarana catesbeiana, UniProt Q9DE60). Put plainly: Reporter gene assay (SRE-luc), antagonism of GnRH-II at bfGnRHR-II. The settings on record: CV-1 cells, GnRH-II 1 nM, antagonist 6 h, luciferase normalized to β-gal, at least three independent experiments. The data set is classed as cell-based. The method, then: (§1) CV-1 Cells were culture overnight in 24-well plates and subsequently transfected with liposome complex containing pGL3/SRE-luc plasmids with bull frog GnRHR-II (bfGnRHR-II) or green monkey GnRHR-II (gmGnRHR-II). Another 48 h later, cells treated with GnRH-II (1 nM for bfGnRHR-II, 10 nM gmGnRHR-II) and different concentration of SN09-2 or Trp-1 for 6 h were washed with PBS and solublized with lysis buffer. Luciferase activity of cell extracts was determined using the standard luciferase assay system from BioTek Instrument, Inc. (Winooski, VT). To determine transfection efficiency, luciferase activities were normalized to the β-gal activity. All data are calculated from at least three independent experiments normalized to untreated groups.

Data set [2] concerns the target T1, green monkey GnRHR-II (gmGnRHR-II) (Chlorocebus aethiops, UniProt Q95MH6).
T1 construct: expressed in transfected cells; host or cells: CV-1 cells
T1 sequence (Q95MH6 1-379): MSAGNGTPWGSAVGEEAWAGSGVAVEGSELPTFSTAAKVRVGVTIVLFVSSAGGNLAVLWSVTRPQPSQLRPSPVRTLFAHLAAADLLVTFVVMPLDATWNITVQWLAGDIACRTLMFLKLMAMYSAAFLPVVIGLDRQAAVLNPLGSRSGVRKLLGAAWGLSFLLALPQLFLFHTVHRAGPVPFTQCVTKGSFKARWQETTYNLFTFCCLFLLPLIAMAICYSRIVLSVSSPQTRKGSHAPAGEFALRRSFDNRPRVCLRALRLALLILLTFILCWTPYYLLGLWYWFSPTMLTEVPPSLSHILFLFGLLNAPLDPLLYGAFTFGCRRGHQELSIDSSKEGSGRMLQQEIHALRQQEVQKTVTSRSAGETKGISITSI
Kind of data set: Reporter gene assay (SRE-luc), antagonism of GnRH-II at gmGnRHR-II. Format: cell-based. As for the experimental part:
as §1

Data set [3] has as its system PC3 cells. The data set is classed as cell-based, human. Conditions: for growth inhibition of PC3 cells: 10 µM. The method, then:
(§2) Cells were seeded in 12-well plates in triplicate (1×10^4 cells/well). After 24 h, cells were treated with the indicated concentrations of GnRH-II antagonists solubilized in 0.1% DMSO every 24 h for the indicated number of days. Then, cells were washed with phosphate-buffered saline (PBS), dissociated with trypsin/EDTA, and re-suspended in 500 µl complete growth media. Trypan blue (0.4%) dye-excluding cells were counted under an inverted microscope (Olympus, Tokyo, Japan).

A further data set deals with cytochrome c (PC3 cells). The settings on record: ref [28]; cited from earlier work. The text has this: (§3) Mitochondrial proteins play pivotal roles in organelle-specific functions such as energy conversion, calcium hemeostasis, ROS generation, and electron transport, [40]. The disturbance of such mitochondrial functions is a critical step towards cell death through the activation of either apoptotic or autophagic pathways, [42]. GRP75 a mitochondrial chaperon is an essential protein for mitochondria biogenesis by refolding and sorting mitochondrial proteins. Elevation of GRP75 is easily observed in various cancer cells, while knockdown of the protein induces mitochondrial dysfunc ...

Data set [4] has as its system prostate cancer cells. The settings on record: ref [28]; cited from earlier work.
From the text: as §3

For another data set, the system named is caspase-3 (PC3 cells). The settings on record: ref [28], cited from earlier work.
From the text: as §3, with “Next, we examined caspase-3 activation by SN09-2. […] We also investigated caspase-3 cleavage in LNCaP and DU145 cells. […] Immunocytochemistry for actively cleaved caspase- ... || Mitochondrial” for “Mitochondrial”

The test system of data set [5] is PC3 cells. The settings on record: FITC-conjugated form, prostate cancer cells; ref [28]; cited from earlier work. An excerpt: In previous reports, we and other groups observed that radiolabeled GnRH-II bound to prostate cancer cells through interaction with an approximately 80-kDa protein whose identity was designated as glucose-regulated protein 75 (GRP75) based on liquid chromatography-electrospray ionization-tandem mass spectrometry, [28], [29]. […] Since GRP75 is found predominantly in mitochondria, the final destination of SN09-2 may not be the cell surface. To explore the subcellular location of the antag ...

In a further data set the test system is PC3 xenograft tumor. Conditions: cited from earlier work; for growth of tumor formed by implanted PC3 cells: previous studies, ref [27], [28]. As for the experimental part:
PC3 cells were implanted into the flanks of nude mice. After tumor formation, SN09-2 was injected into the mice at different concentrations for 25 consecutive days. […] In the group treated with 0.1 mg SN09-2, tumor volumes were reduced by 27%, compared with the vehicle-treated group (Fig. 7A, B). […] The di ... || Both GnRH-I agonists and antagonists are able to inhibit the growth of cancer cells in sex hormone-regulated tissues including ovarian cancer and prostate cancer, by directly stimulating cell death pathways as well as by decreasing gonadotropin and sex hormone levels, [32], [33]. Because of the sequence similarity between GnRH-I and GnRH-II, GnRH-II and its antagonists are considered to exert similar effects on these types of cancer, although its receptor has not been identified in human and its action mechanisms have not been well elucidated. In some reports, GnRH-II has been shown ...

Data set [6] relates to prostate cancer cells. The settings on record: cited from earlier work; for displacement of radiolabeled GnRH-II binding: various human prostate cancer cells, ref [27]. The text has this:
GnRH-II is likely to function on prostate cancer cells by interacting with unknown proteins, based on our previous observation that radiolabeled GnRH-II was able to bind various human prostate cancer cells.

For another data set, the system named is human T cells. The settings on record: ref [20]; cited from earlier work. An excerpt:
In most vertebrates, the other type of GnRH, called GnRH-II, is identified, which is structurally conserved in evolution from fish to mammals [12]–[14]. GnRH-II is expressed not only in the brain but also in peripheral reproductive and immune tissues. This wide expression pattern may confer a variety of physiological functions on the peptide. Similar to GnRH-I, GnRH-II is able to regulate reproduction in females by stimulating the secretion of LH and FSH [16], [17].

A further data set relates to DU145 cells. Kind of data set: Cell viability assay, DU145. Format: cell-based, human. The settings on record: 10 µM, 5% serum, 3 days. As for the experimental part: as §2
The nature of data set [7]: Tolerability in nude mice (histology, blood chemistry, injection site). Format: in vivo, male athymic nude mice (BALB/c-nu). As for the experimental part:
Six-week-old male athymic nude mice (BALB/c-nu) were obtained from Harlan (Houston, TX). Mice were housed under specific pathogen-free conditions in an individually ventilated caging system. All experimental procedures were performed after receiving approval from the Institutional Animal Care and Use Committee of Clinical Research Institute in Seoul National University Hospital. PC3 cells (6×10^6) were injected into the right flank of the mice. Ten days after cell injection, tumors with volumes of around 20–25 mm^3 developed in most mice; tumor volumes were measured every day. Tumor volumes were determined by two perpendicular dimensions [length (L) and width (W)] and the height (H), measured using Vernier calipers (the formula is V = (π/6) × (W×L×H). From this time, SN09-2 (acetic acid form) dissolved in 5% N,N-dimethylacetamide (DMA), 10% glycerol, and 85% distilled water which is biocompatible solvent were subcutaneously injected into the mice for 25 consecutive days. The tumor size in each mouse was measured every day. Six to seven mice were used for each experimental group.

The nature of data set [8]: Dissolution in solvents / at the injection site. Format: physicochemical.
For a further data set, the system named is ovarian cancer cells. The settings on record: cited from earlier work. An excerpt:
GnRH-II is likely to function on prostate cancer cells by interacting with unknown proteins, based on our previous observation that radiolabeled GnRH-II was able to bind various human prostate cancer cells. […] Because of the sequence similarity between GnRH-I and GnRH-II, GnRH-II and its antagonists are considered to exert similar effects on these types of cancer, although its receptor has not been identified in human and its action mechanisms have not been well elucidated. In some reports, GnRH-II has been shown ...

Like-named read-outs stand apart in the source and are kept apart here. Square brackets hold non-standard residues; d marks the D form. Ends that are not written are not given here. Peptide text beside a SMILES is read from it. dPhe(4-Cl) = N[C@H](Cc1ccc(Cl)cc1)C(=O)O; d2Nal = N[C@H](Cc1ccc2ccccc2c1)C(=O)O; dCit = NC(=O)NCCC[C@@H](N)C(=O)O; d3Pal = N[C@H](Cc1cccnc1)C(=O)O

Chain of bull frog GnRHR-II (bfGnRHR-II) (Q9DE60 entry or part of it): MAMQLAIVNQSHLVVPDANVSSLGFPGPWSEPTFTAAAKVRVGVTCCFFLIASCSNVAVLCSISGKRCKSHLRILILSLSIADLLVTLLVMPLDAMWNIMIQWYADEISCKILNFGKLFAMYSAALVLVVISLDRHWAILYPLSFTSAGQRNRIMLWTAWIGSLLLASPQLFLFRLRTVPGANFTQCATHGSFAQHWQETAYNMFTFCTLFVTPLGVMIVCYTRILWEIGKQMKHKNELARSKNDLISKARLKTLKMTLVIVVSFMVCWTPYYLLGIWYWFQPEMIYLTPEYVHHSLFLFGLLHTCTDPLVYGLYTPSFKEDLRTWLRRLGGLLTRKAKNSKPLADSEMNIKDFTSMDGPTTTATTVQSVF

Consider “Ac-[d2Nal][dPhe(4-Cl)][d3Pal]SY[dCit]WYP[dA]-NH2 [Trp-1, GnRH-II antagonist of the authors' earlier report]”, for which, in [1], the IC50 came out at 250 nM. Further, the “antagonism of GnRH-II at gmGnRHR-II” value in data set [2] (CV-1 cells, SRE-luc reporter, GnRH-II 10 nM, antagonist 6 h, luciferase normalized to β-gal, at least three independent experiments) is given as “partial”. The “PC3 cell growth inhibition, dose response” value in the data set with PC3 cells [3] (different concentrations, 5% serum, 3 days, versus DMSO control) is reported as “significantly attenuated cell growth in a dose-dependent manner”. Further, the cytochrome c release entry with cytochrome c (PC3 cells) is reported as “does not induce”. In addition, the autophagic cell death entry with prostate cancer cells [4] was “induces autophagic cell death”. The “activation of the apoptotic machinery” value in the data set with caspase-3 (PC3 cells) (previous results) is on record as “could not trigger the activation of the apoptotic machinery”. Besides, the caspase-3 activation entry with caspase-3 (PC3 cells) was “does not induce”. Further, in the data set with PC3 cells [5], the “mitochondrial accumulation in presence of unlabeled GnRH-II” value was “attenuated by unlabeled GnRH-II”. For the same compound, the “inhibitory activity on tumor volume” value in the data set on PC3 xenograft tumor (0.1 mg, PC3 xenograft, quoted comparison, ref [28]) was 60%. Besides, in the data set with PC3 xenograft tumor, the “growth of tumor formed by implanted PC3 cells” value is listed as “inhibited growth of the tumor”.
With “GnRH-I: gonadotropin-releasing hormone-I synthesized in the hypothalamus”, in the data set on prostate cancer cells [6], the “displacement of radiolabeled GnRH-II binding” value is “not by GnRH-I”.
For cetrorelix, the “growth of tumor formed by implanted PC3 cells” value in the data set on PC3 xenograft tumor is “very weak effect on tumor growth”. Also, the “block of GnRH-II-induced laminin receptor expression” value in the data set with human T cells is recorded as “not blocked”.
In data set [2], `CC(=O)N[C@H](Cc1ccc2ccccc2c1)C(=O)N[C@H](Cc1ccc(Cl)cc1)C(=O)N[C@H](Cc1cccnc1)C(=O)N[C@@H](CO)C(=O)N[C@@H](Cc1ccccc1)C(=O)N[C@H](CCCCN)C(=O)N[C@@H](Cc1c[nH]c2ccccc12)C(=O)N[C@@H](Cc1ccc(O)cc1)C(=O)N[C@@H](CCCNC(=N)N)C(=O)N[C@H](C)C(N)=O` [SN09-2, Ac-D-Nal(2)-D-phe(4Cl)-D-Pal(3)-Ser-Phe-D-Lys-Trp-Tyr-Arg-D-Ala-NH2] (Ac-[d2Nal][dPhe(4-Cl)][d3Pal]SF[dK]WYR[dA]-NH2) had an IC50 of 1900 nM. For the same compound, the “growth inhibition of PC3 cells” value with PC3 cells [3] (5% serum, 4 days) was 91%; in the data set with PC3 cells [3] (10% serum, 4 days), 88%; in the data set on PC3 cells [3] (higher serum concentrations, 4 days), “more than 85%”; with PC3 cells [3] (low serum concentrations (less than 2% FBS), within 4 days) it was “more than 95%”. Moreover, the “growth inhibition of DU145 cells” value in the data set with DU145 cells was “≈ 50%”. Also, the “liver and kidney histopathology” value in data set [7] (after 25 days subcutaneous treatment) is listed as “no histo-pathological abnormalities”. For the same compound, in data set [7] (after 25 days subcutaneous treatment, data not shown), the “serum alkaline phosphatase, aspartate aminotransferase, alanine aminotransferase, urea nitrogen, creatinine, total bilirubin” value was “did not differ between vehicle and SN09-2-treated mice”. Moreover, in [7] (mice, several days after subcutaneous injection), the “skin irritation / densely populated cells at the injection site” value is reported as “no skin irritation or densely populated cells were detected”. The edema-like phenotype result in data set [7] (mice, subcutaneous treatment) is recorded as “not observed”. Besides, the “adverse effects to the animal” value in [7] (xenograft model) is given as “without any apparent adverse effects”. Further, the “solubility in 5% DMA” value in data set [8] (5% N,N′-dimethylacetamide (DMA) formulation) was “appeared well dissolved”. For the same compound, the “solubility in DMSO” value in data set [8] (DMSO, solvent for in vitro treatment) was “dissolved well in DMSO”.
As for “FITC-conjugated GnRH-II: FITC-conjugated GnRH-II (QHWSHGWYPG; ends and bridges not checked; also: FITC-conjugated, site not given here; UniProt O43555 24-33, looked up)”, the “mitochondrial accumulation in presence of unlabeled GnRH-II” value with PC3 cells [5] was “attenuated by unlabeled GnRH-II”.
In the case of “GnRH-II: the other type of GnRH, structurally conserved in evolution from fish to mammals (QHWSHGWYPG; ends and bridges not checked; UniProt O43555 24-33, looked up)”, in the data set on prostate cancer cells [6] (ref [26], [27]), the “inhibition of proliferation of prostate cancer cells” value is recorded as “inhibit the proliferation”. The “displacement of radiolabeled GnRH-II binding” value in the data set on prostate cancer cells [6] was “displaced by unlabeled GnRH-II”. Besides, in the data set on human T cells, the laminin receptor expression entry was “stimulates laminin receptor expression”. In the data set on ovarian cancer cells (ref [26], [27]), the “inhibition of proliferation of ovarian cancer cells” value is “inhibit the proliferation”. Besides, in the data set on ovarian cancer cells (ref [33]), the “anti-proliferative effect in ovarian cancer, versus GnRH-I” value is “stronger anti-proliferative effect than that of GnRH-I”.
